{"source": "patent US20070232575A1", "about": "“Treatment of Pulmonary Artery Hypertension with Dhea, Dheas, Dhea Analogs, or Dhea Derivatives” (priority 2004, published 2007)", "key": {"[1]": {"system": "chronic hypoxic-pulmonary artery hypertension (CH-PAH)", "assay": "Mean pulmonary arterial pressure (PAP) in chronic hypoxic (CH-PAH) rat model", "type": "in vivo", "details": "for reversal of PA hypertension: in contrast to testosterone, estradiol, pregnenolone, protocol not restated; for effect on PAP, i.v. administration: 3 mg/kg, same intravascular protocol as for DHEA, CH-DHEA rats (so in the source)", "procedure": "To study the mechanisms of PAH and its possible treatments, an animal model was utilized. The placement of rats in a hypobaric chamber for 7 to 21 days induced chronic hypoxia, resulting in CH-PAH, a useful model system for studying mammalian PAH.\nThe rat model experiments were performed as follows. Adult male Wistar rats (220-240 g) were randomized into five groups. […] Intravascular administration was performed via the catheter inserted in the right jugular vein."}, "PASMCs from CH rats": {"system": "PASMCs from CH rats", "assay": "In vitro DHEA treatment of PASMCs, resting [Ca2+]i, with K channel blockers and pathway inhibitors", "type": "cell-based, rat", "details": "for effect on the DHEA-induced [Ca2+]i decrease: DHEA plus blocker/inhibitor: IbTx, agitoxin-2, ODQ 10 μM, genistein 1 μM, 476485 1 μM, DTT", "procedure": "The heart and lungs were removed and intrapulmonary arteries (IPAs) (150-300 μm of internal diameter) were then dissected. The adventitial and intimal layers were removed. For contraction experiments, rings (3 mm in length) were prepared.\nAs mentioned earlier, Ca^2+ is thought to play an important role in the response to chronic hypoxia. To measure the effects of DHEA on [Ca^2+]i of individual PASMCs, a [Ca^2+]i-sensitive fluorophore, indo-1 (Calbiochem, San Diego, Calif.), was employed. […] The recording system included a Nikon Diaphot inverted microscope fitted with epifluorescence.\nTo further examine how DHEA functions to decrease the [Ca^2+]i in PASMCs, the following experiment was performed."}}, "note": "Where “and” joins values, the source holds several entries; their conditions need not be identical. Equal entries are not always repeated. Entries after “also recorded” stand apart in the source; their conditions may differ.", "data": [{"compound": "C[C@]12CC[C@H](O)C[C@@H]1CC[C@@H]1[C@@H]2CC[C@]2(C)C(=O)CC[C@@H]12", "note": "[3β-hydroxy-5α-androstan-17-one]", "values": [{"measurement": "reversal of PA hypertension", "setting": "[1]", "value": "did reverse PA hypertension"}]}, {"compound": "C[C@H]1CC[C@@]2(C)C(=CC[C@@H]3[C@@H]2CC[C@]2(C)C(=O)CC[C@@H]32)C1", "note": "[3βmethyl-5-androsten-17-one]", "values": [{"measurement": "reversal of PA hypertension", "setting": "[1]", "value": "did reverse PA hypertension"}]}, {"compound": "Nc1ccncc1", "note": "[4-AP, 4-amino-pyridine]", "values": [{"measurement": "block of the DHEA-induced [Ca2+]i decrease", "setting": "PASMCs from CH rats; combined IbTx 100 nM and 4-AP 1 mM", "value": 100, "unit": "%"}, {"measurement": "effect on the DHEA effect on resting [Ca2+]i", "setting": "PASMCs from CH rats; combined presence of 4-AP and IbTx", "value": "almost totally abolished"}]}, {"compound": "C[C@]12CC[C@H]3[C@@H](CC=C4C[C@@H](O)CC[C@@]43C)[C@@H]1CC[C@@H]2O", "note": "[5-androsten-3β,17β-diol]", "values": [{"measurement": "reversal of PA hypertension", "setting": "[1]", "value": "did reverse PA hypertension"}]}, {"compound": "O[C@@H](CS)[C@@H](O)CS", "note": "[DTT]", "values": [{"measurement": "effect on the DHEA-induced [Ca2+]i decrease", "setting": "PASMCs from CH rats", "value": "totally inhibited; also recorded: suppressed; also recorded: inhibits the effect of DHEA"}, {"measurement": "elevation of the resting [Ca2+]i", "setting": "PASMCs from CH rats; DTT with DHEA, PASMCs", "value": 23, "unit": "nM"}]}, {"compound": "O=c1onc2cnc3ccccc3n12", "note": "[ODQ, 1H-[1,2,4]oxadiazolol[4,3,-a]quinoxalin-1-one]", "values": [{"measurement": "effect on the DHEA-induced [Ca2+]i decrease", "setting": "PASMCs from CH rats", "value": "did not alter; also recorded: no effect"}]}, {"compound": "O=c1c(-c2ccc(O)cc2)coc2cc(O)cc(O)c12", "note": "[genistein, Genistein]", "values": [{"measurement": "effect on the DHEA-induced [Ca2+]i decrease", "setting": "PASMCs from CH rats", "value": "did not alter; also recorded: no effect"}]}, {"compound": "CC(=O)[C@H]1CC[C@H]2[C@@H]3CC=C4C[C@@H](O)CC[C@]4(C)[C@H]3CC[C@]12C", "note": "[pregnenolone]", "values": [{"measurement": "effect on PAP, i.v. administration", "setting": "[1]", "value": "did not reveal any effect"}]}, {"compound": "C[C@]12CC[C@H]3[C@@H](CCC4=CC(=O)CC[C@@]43C)[C@@H]1CC[C@@H]2O", "note": "[testosterone]", "values": [{"measurement": "effect on PAP, i.v. administration", "setting": "[1]", "value": "did not reveal any effect"}]}, {"compound": "agitoxin-2", "values": [{"measurement": "effect on the DHEA-induced [Ca2+]i decrease", "setting": "PASMCs from CH rats", "value": "no effect"}]}, {"compound": "iberiotoxin (QFTDVDCSVSKECWSVCKDLFGVDRGKCMGKKCRCYQ; UniProt P24663 1-37, looked up) [IbTx]", "values": [{"measurement": "inhibition of the DHEA-induced change of resting [Ca2+]i", "setting": "PASMCs from CH rats; DHEA 100 μM and IbTx 100 nM, 10 min, PASMCs from CH rats", "value": "62% and 65%"}, {"measurement": "effect on the DHEA-induced [Ca2+]i decrease", "setting": "PASMCs from CH rats", "value": "blocked"}]}]}
